Test results from patent US12216122B2, “Compositions and methods relating to detection, inhibition, and imaging of indoleamine 2,3-dioxygenase 1 (IDO1)” (Regeneron Pharmaceuticals, Inc., priority 2019, dated 2025).
Like-named read-outs stand apart in the source and are kept apart here. Bridge positions count the residues as written; N and C are the ends. Square brackets hold non-standard residues; d marks the D form. Triazole bridges read from a SMILES are 1,4-linked. Peptide text beside a SMILES is read from it. * marks the point of attachment. Biotinyl(3aR,4R,6aS) = O=C1N[C@@H]2[C@@H](CS[C@@H]2CCCCC(=O)*)N1; dTrp(1-Me) = Cn1cc(C[C@@H](N)C(=O)O)c2ccccc21; Lys(N3) = [N-]=[N+]=NCCCC[C@H](N)C(=O)O; AEEEA = NCCOCCOCCOCC(=O)O; Pra = C#CC[C@H](N)C(=O)O

Assays:
[1] = molecular target: T1, His-tagged IDO1 human recombinant protein (Homo sapiens, UniProt P14902); test: IDO1 ELISA (Affinity Assay): sandwich ELISA, biotinylated ligand immobilized on NEUTRAVIDIN plate; assay type: binding
T1 construct: purchased BPS Biosciences 71182

[2] = molecular target: T1, His-tagged IDO1 human recombinant protein; test: as above; assay type: binding; conditions: a solution of 200 nM macrocycle was immobilized; read-out: EC50, sandwich ELISA for human IDO1 protein against biotin-PEG3-modified macrocycle
murine IDO1 protein = murine IDO1 protein (Mus musculus, UniProt P28776); test: ELISA against murine IDO1 protein (species cross-reactivity); assay type: binding
Method: Protocol: A black 96-well NEUTRAVIDIN® Coated High Binding Capacity plate (15510, Pierce) was coated with 2 μM biotinylated macrocyclic peptide ligand in TBS (25 mM Tris-HCl, 150 mM NaCl, pH 7.6) for 2 h at room temperature. The plate was aspirated and then washed with Wash Buffer (0.05% (v/v) TWEEN® 20 in PBS, 6×). His-tagged IDO1 human recombinant protein (71182, BPS Biosciences) was serially diluted in Wash Buffer (from 200 to 0 nM) and incubated in the designated microwells for 1 h at room temperature. Microwells were aspirated and subsequently washed with Wash Buffer (11×). To detect the bound IDO1 protein, Alkaline Phosphatase (AP)-conjugated Anti-6×HIS TAG® antibody [HIS-1] (ab49746, Abcam) was prepared at 1:10,000 dilution and added to the microwells for 1 h at room temperature. The plate was aspirated and washed with Wash Buffer (5×). ATTOPHOS® AP Fluorescent Substrate System (S1000, Promega) was employed to develop the microwells. Using an excitation wavelength of 430 nm, fluorescent emission at 535 nm was recorded by Beckman Coulter DTX880 photometer. Titration curves were fit using a four-parameter regression curve fitting program to determine EC50 values.
To test for cross-reactivity with murine IDO1, the human IDO1 targeted macrocyclic peptide ligands were assayed against the murine IDO1 protein by ELISA.

[3] = Percent organic elution in reverse-phase HPLC (C18) as lipophilicity readout; assay type: physicochemical; conditions: Table 12; C18, A=water+0.1% TFA, B=acetonitrile+0.1% TFA
Text: The predicted increase in lipophilicity for wyvay (SEQ ID NO:2) was experimentally confirmed by the percent organic (% B) elution during reverse-phase HPLC (RP-HPLC) using a C18 column where solvents A=water+0.1% TFA and B=acetonitrile+0.1% TFA.

T1 sequence (P14902 whole entry): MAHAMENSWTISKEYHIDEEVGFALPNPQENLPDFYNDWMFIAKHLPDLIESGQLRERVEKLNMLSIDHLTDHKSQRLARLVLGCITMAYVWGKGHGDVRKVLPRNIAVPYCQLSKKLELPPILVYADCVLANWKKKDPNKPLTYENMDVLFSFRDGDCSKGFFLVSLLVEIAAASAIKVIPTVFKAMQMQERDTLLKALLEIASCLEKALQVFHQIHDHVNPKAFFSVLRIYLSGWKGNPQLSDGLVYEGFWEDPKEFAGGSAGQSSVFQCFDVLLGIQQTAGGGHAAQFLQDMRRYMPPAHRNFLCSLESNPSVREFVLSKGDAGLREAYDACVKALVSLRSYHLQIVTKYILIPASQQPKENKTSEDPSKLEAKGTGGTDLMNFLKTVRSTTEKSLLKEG
Sequence of murine IDO1 protein (P28776 whole entry): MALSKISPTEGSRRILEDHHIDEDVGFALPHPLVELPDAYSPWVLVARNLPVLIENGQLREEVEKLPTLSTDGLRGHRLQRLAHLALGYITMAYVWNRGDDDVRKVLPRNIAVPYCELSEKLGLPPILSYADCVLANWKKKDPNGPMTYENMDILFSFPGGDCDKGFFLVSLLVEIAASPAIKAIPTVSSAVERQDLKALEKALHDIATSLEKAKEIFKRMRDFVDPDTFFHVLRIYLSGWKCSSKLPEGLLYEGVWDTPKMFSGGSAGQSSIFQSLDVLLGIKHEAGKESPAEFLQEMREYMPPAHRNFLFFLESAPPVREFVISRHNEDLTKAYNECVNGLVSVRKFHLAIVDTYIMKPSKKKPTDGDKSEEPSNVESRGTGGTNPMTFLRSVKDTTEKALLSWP

Row | EC50 ([1]; Table 10, read-out: Human IDO EC50) | EC50 [2] | EC50 (murine IDO1 protein; Table 10, read-out: Mouse IDO EC50) | EC50 ([1]; 2 μM biotinylated macrocycle immobilized, human IDO1 titrated 200 to 0 nM, read-out: EC50, sandwich ELISA for human IDO1 protein against biotin-PEG3-modified macrocycle) | EC50 ([1]; Example 9, read-out: Binding affinity (EC50) of prioritized Epitope 1 hits) | EC50 ([1]; Table 12, read-out: EC50) | HPLC % B [3] | SMILES | Selectivity human versus mouse IDO1 by ELISA (murine IDO1 protein; FIG. 2F)
1 | 91 ± 22 nM | 81 nM | 17 nM | – | – | – | – | Cn1cc(C[C@H]2NC(=O)[C@@H](CO)NC(=O)[C@@H](Cc3ccc(O)cc3)NC(=O)[C@@H](CCCNC(=N)N)NC(=O)[C@@H](NC(=O)COCCOCCOCCNC(=O)CCCC[C@H]3SC[C@H]4NC(=O)N[C@H]43)Cc3cn(nn3)CCCC[C@@H](C(N)=O)NC(=O)[C@@H](CCCNC(=N)N)NC2=O)c2ccccc21 [rys(Me-Trp)r, biotin-PEG3-Cy(rys(Me-Trp)r)] ({Biotinyl(3aR,4R,6aS)-AEEEA}-[Pra][dR][dY][dS][dTrp(1-Me)][dR][Lys(N3)]-NH2; triazole 1-7) | –
2 | – | – | – | 25 nM | 25 nM | 25 nM | 25.7% | C[C@H]1NC(=O)[C@@H](CCCNC(=N)N)NC(=O)[C@@H](Cc2ccc(O)cc2)NC(=O)[C@@H](Cc2c[nH]c3ccccc23)NC(=O)[C@@H](NC(=O)COCCOCCOCCNC(=O)CCCC[C@H]2SC[C@H]3NC(=O)N[C@H]32)CC2=CC(CCCC[C@@H](C(N)=O)NC(=O)[C@@H](Cc3ccc(O)cc3)NC1=O)N=N2 (some centres unmarked) [wyray, biotin-PEG3-Cy(wyray)] | selectivity for the human recombinant protein over mouse is observed
